Experimental data from patent publication US20110166078A1, “OLIGOSACCHARIDE COMPOUNDS FOR USE IN MOBILISING STEM CELLS” (ENDOTIS PHARMA, priority 2008, published 2011).

What was measured:
PDGF-β = PDGF-β (Homo sapiens, UniProt P01127); assay: PDGF-β/heparin competition assay by SPR (Biacore); assay type: binding; details: 10 nM PDGF-β, biotinylated heparin, Sensorchip C1
Method: (§1) Heparin or low molecular weight heparin (6 kDa) from SIGMA were biotinylated at the reducing end and immobilized on a Biacore sensorchip. Different concentrations of the compounds of the present invention were co-incubated at a fixed concentration of targets: FGF-2, PDGF-β, VEGF-A or SDF-1α for 30 minutes. The mixture was then injected onto the streptavidin control (control reference) and HP surfaces. Only free growth factor (GF) or chemokine, i.e. the target molecules not bound to compounds of the present invention, were trapped on the heparin surface. From the binding of free targets on heparin, the percentages of inhibition were calculated and then reported in function of compound concentrations. The plot was fitted with a four-parameter model and IC50 was calculated. The 0% inhibition value was obtained for the injection of the studied target in running-buffer, and the 100% inhibition value was obtained for the injection of the studied target co-incubated with 10 μM of low molecular weight heparin 6 kDa. A PDGF-β/heparin competition assay using the Biacore technology was performed using the following conditions: 10 nM PDGF-β, biotinylated heparin, Reference Streptavidin, Sensorchip C1, HBS-P, Regeneration NaCl 2M. IC50 values of compounds of the present invention were determined using the Biacore technology for the growth factor and chemokine/heparin competition assays that contained the following proteins: VEGF-A, SDF-1α, FGF-2 and PDGF-β.

[1] = test system: control and VEGF-A-stimulated angiogenesis (endothelial tubules, HUVEC/NHDF co-culture); assay: In vitro angiogenesis assay (endothelial tubule formation, AngioKit); assay type: cell-based, human; details: 30 μM compound; anti-CD31 ELISA and AngioSys image analysis; FIGS. 13-15
Text: These experiments are also known as endothelial tubule formation assays and they are used to evaluate the compound effects on in vitro angiogenesis (the neo-formation of blood vessels from pre-existing ones). This process is critical in tumour development as bloodstream brings all the necessary nutrients and oxygen to cancer cells.
The assay uses a commercially available product (AngioKit) specially designed for screening experiments. The product consists of a 24 or 96-well culture plate containing endothelial and fibroblast cells. A similar assay has been developed “in-house” using 48-well culture plates.
Endothelial cells will, on a ten-day period, develop into a branched network of endothelial tubules or “primitive” blood vessels. This process requires a co-culture with fibroblasts, these latter cells secreting essential growth factors for endothelial cells. At the end of the incubation period (about ten days), angiogenesis is monitored both by ELISA and image analysis software quantifying different blood vessel parameters (number and average length of tubules, field area, number of junctions for example). All reagents and material (except the oligosaccharide compounds, the VEGF-A and the 48-well plate AngioKits) are bought from TCS CellWorks (http://www.tcscellworks.co.uk) which provides: • 24 and 96-well plate AngioKits (including culture medium) • Anti-CD31 (a cell marker specifically expressed on endothelial cells) reagents for ELISA and tubule staining procedures. • AngioSys image analysis software
For home-made 48-well plate AngioKits, NHDF and HUVEC cells were independently purchased while TCS CellWorks culture medium and protocol were used.
The cell medium is replaced with fresh one (day 1) and cells are incubated at 37° C. with the compounds of interest (oligosaccharides and/or angiogenic proteins, such as growth factors). During the course of the experiment, the culture medium (including oligosaccharides and/or angiogenic proteins) is replaced at days 4 and 7.
At day 10, the assay is terminated by the labelling of endothelial cells by an ELISA procedure (indirect colorimetric titration of the endothelial cell number through dosage of the endothelial-specific CD31 marker) and the staining of endothelial tubules. Photographs of stained tubules are taken and analysed with the AngioSys image analysis software.
In the following assay the effects of compounds 239, 240, 246, 247, 248, 249, 252, 254, 255 and 257 on in vitro angiogenesis were measured (all compounds were added at the 30 μM concentration). […] For the data presented in FIG. 13, AngioSys image analyses are shown on FIG. 14. Photographs of endothelial tubules are shown on the side of the anti-CD31 ELISA (see FIGS. 13 and 15).

FGF-2 = FGF-2 (Homo sapiens, UniProt P09038); assay: FGF-2/heparin competition assay by SPR (Biacore); assay type: binding; details: 10 nM FGF-2, biotinylated heparin, Sensorchip C1
Method: as §1, with “kDa.” for “kDa. A PDGF-β/heparin competition assay using the Biacore technology was performed using the following conditions: 10 nM PDGF-β, biotinylated heparin, Reference Streptavidin, Sensorchip C1, HBS-P, Regeneration NaCl 2M. IC50 values of compounds of the present invention were determined using the Biacore technology for the growth factor and chemokine/heparin competition assays that contained the following proteins: VEGF-A, SDF-1α, FGF-2 and PDGF-β.”
A FGF-2/heparin competition assay using the Biacore technology was performed in the following conditions: 10 nM FGF-2, biotinylated heparin, Reference Streptavidin, Sensorchip C1, PBS-T 0.02%, Regeneration NaCl 2M
(§2) IC50 values of compounds of the present invention were determined using the Biacore technology for the growth factor and chemokine/heparin competition assays that contained the following proteins: VEGF-A, SDF-1α, FGF-2 and PDGF-β.

SDF-1α = SDF-1α (Homo sapiens, UniProt P48061); assay: SDF-1α/heparin competition assay by SPR (Biacore); assay type: binding; details: 96 nM SDF-1α, biotinylated low molecular weight heparin (6 kDa), Sensorchip SA
Method: as §1, with “kDa.” for “kDa. A PDGF-β/heparin competition assay using the Biacore technology was performed using the following conditions: 10 nM PDGF-β, biotinylated heparin, Reference Streptavidin, Sensorchip C1, HBS-P, Regeneration NaCl 2M. IC50 values of compounds of the present invention were determined using the Biacore technology for the growth factor and chemokine/heparin competition assays that contained the following proteins: VEGF-A, SDF-1α, FGF-2 and PDGF-β.”
A SDF-1α/heparin competition assay using the Biacore technology was performed using the following conditions: 96 nM SDF-1α, biotinylated low molecular weight heparin (6 kDa), Reference Streptavidin, Sensorchip SA, HBS-P, Regeneration NaCl 2M
as §2

VEGF-A = target: T1, VEGF-A (Homo sapiens, UniProt P15692); assay: VEGF-A/heparin competition assay by SPR (Biacore); assay type: binding; details: 10 nM VEGF-A, biotinylated low molecular weight heparin, Sensorchip SA
T1 sequence (P15692 27-191 isoform P15692-4): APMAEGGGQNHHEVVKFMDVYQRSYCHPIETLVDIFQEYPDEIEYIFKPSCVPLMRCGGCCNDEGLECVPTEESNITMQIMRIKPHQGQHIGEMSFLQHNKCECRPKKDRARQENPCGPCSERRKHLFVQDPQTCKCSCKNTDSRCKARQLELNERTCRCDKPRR
Method: as §1, with “kDa.” for “kDa. A PDGF-β/heparin competition assay using the Biacore technology was performed using the following conditions: 10 nM PDGF-β, biotinylated heparin, Reference Streptavidin, Sensorchip C1, HBS-P, Regeneration NaCl 2M. IC50 values of compounds of the present invention were determined using the Biacore technology for the growth factor and chemokine/heparin competition assays that contained the following proteins: VEGF-A, SDF-1α, FGF-2 and PDGF-β.”
A VEGF-A/heparin competition assay using the Biacore technology was performed using the following conditions: 10 nM VEGF-A, biotinylated low molecular weight heparin, Reference Streptavidin, Sensorchip SA, HBS-P, Regeneration NaCl 2M.
as §2

Row | Compound | IC50 (PDGF-β) [nM] | inhibition of control and/or VEGF-A-stimulated angiogenesis [1] | IC50 (FGF-2) [nM] | IC50 (SDF-1α) [nM] | IC50 (VEGF-A) [nM]
1 | C#CCCCOC1OC(COS(=O)(=O)[O-])C(OC2OC(C(=O)[O-])C(OC3OC(COS(=O)(=O)[O-])C(OC4OC(C(=O)[O-])C(OC5OC(COS(=O)(=O)[O-])C(OC6OC(C(=O)[O-])C(OCc7ccccc7)C(OCc7ccccc7)C6OS(=O)(=O)[O-])C(OCc6ccccc6)C5NS(=O)(=O)[O-])C(OCc5ccccc5)C4OS(=O)(=O)[O-])C(OCc4ccccc4)C3NS(=O)(=O)[O-])C(OCc3ccccc3)C2OS(=O)(=O)[O-])C(OC)C1NS(=O)(=O)[O-].[Na+].[Na+].[Na+].[Na+].[Na+].[Na+].[Na+].[Na+].[Na+].[Na+].[Na+].[Na+] (stereo not shown) [Compound 249] | 225 | inhibition of control and/or VEGF-A-stimulated angiogenesis | 136 |  | 
2 | C#CCCCOC1OC(COS(=O)(=O)[O-])C(OC2OC(C(=O)[O-])C(OC3OC(COS(=O)(=O)[O-])C(OC4OC(C(=O)[O-])C(OC5OC(COS(=O)(=O)[O-])C(OC6OC(C(=O)[O-])C(OC)C(OC)C6OS(=O)(=O)[O-])C(OC)C5NS(=O)(=O)[O-])C(OC)C4OS(=O)(=O)[O-])C(OC)C3NS(=O)(=O)[O-])C(OC)C2OS(=O)(=O)[O-])C(OC)C1NS(=O)(=O)[O-].[Na+].[Na+].[Na+].[Na+].[Na+].[Na+].[Na+].[Na+].[Na+].[Na+].[Na+].[Na+] (stereo not shown) [Compound 248] | 28000 | inhibition of control and/or VEGF-A-stimulated angiogenesis | 1660 | 22600 | 1670
3 | C#CCCCOC1OC(COS(=O)(=O)[O-])C(OC2OC(C(=O)[O-])C(OC3OC(COS(=O)(=O)[O-])C(OC4OC(C(=O)[O-])C(OC5OC(COS(=O)(=O)[O-])C(OC6OC(C(=O)[O-])C(OCc7ccccc7)C(OCc7ccccc7)C6OS(=O)(=O)[O-])C(OCc6ccccc6)C5NS(=O)(=O)[O-])C(OC)C4OS(=O)(=O)[O-])C(OC)C3NS(=O)(=O)[O-])C(OCc3ccccc3)C2OS(=O)(=O)[O-])C(OCc2ccccc2)C1NS(=O)(=O)[O-].[Na+].[Na+].[Na+].[Na+].[Na+].[Na+].[Na+].[Na+].[Na+].[Na+].[Na+].[Na+] (stereo not shown) [Compound 252] | 171 | inhibition of control and/or VEGF-A-stimulated angiogenesis | 121 |  | 
4 | C#CCCCOC1OC(COS(=O)(=O)[O-])C(OC2OC(C(=O)[O-])C(OC3OC(COS(=O)(=O)[O-])C(OC4OC(C(=O)[O-])C(OC5OC(COS(=O)(=O)[O-])C(OC6OC(C(=O)[O-])C(OCc7ccccc7)C(OCc7ccccc7)C6OS(=O)(=O)[O-])C(OC)C5NS(=O)(=O)[O-])C(OCc5ccccc5)C4OS(=O)(=O)[O-])C(OC)C3NS(=O)(=O)[O-])C(OCc3ccccc3)C2OS(=O)(=O)[O-])C(OC)C1NS(=O)(=O)[O-].[Na+].[Na+].[Na+].[Na+].[Na+].[Na+].[Na+].[Na+].[Na+].[Na+].[Na+].[Na+] (stereo not shown) [Compound 246] | 194 | inhibition of control and/or VEGF-A-stimulated angiogenesis | 167 | 865 | 59
5 | C#CCCCOC1OC(COS(=O)(=O)[O-])C(OC2OC(C(=O)[O-])C(OC3OC(COS(=O)(=O)[O-])C(OC4OC(C(=O)[O-])C(OC5OC(COS(=O)(=O)[O-])C(OC6OC(C(=O)[O-])C(OCc7ccccc7)C(OCc7ccccc7)C6OS(=O)(=O)[O-])C(OCc6ccccc6)C5NS(=O)(=O)[O-])C(OCc5ccccc5)C4OS(=O)(=O)[O-])C(OC)C3NS(=O)(=O)[O-])C(OC)C2OS(=O)(=O)[O-])C(OC)C1NS(=O)(=O)[O-].[Na+].[Na+].[Na+].[Na+].[Na+].[Na+].[Na+].[Na+].[Na+].[Na+].[Na+].[Na+] (stereo not shown) [Compound 255] | 122 | inhibition of control and/or VEGF-A-stimulated angiogenesis | 36 |  | 
6 | C#CCCCOC1OC(COS(=O)(=O)[O-])C(OC2OC(C(=O)[O-])C(OC3OC(COS(=O)(=O)[O-])C(OC4OC(C(=O)[O-])C(OC5OC(COS(=O)(=O)[O-])C(OC6OC(C(=O)[O-])C(OC)C(OC)C6OS(=O)(=O)[O-])C(OCc6ccccc6)C5NS(=O)(=O)[O-])C(OC)C4OS(=O)(=O)[O-])C(OCc4ccccc4)C3NS(=O)(=O)[O-])C(OC)C2OS(=O)(=O)[O-])C(OCc2ccccc2)C1NS(=O)(=O)[O-].[Na+].[Na+].[Na+].[Na+].[Na+].[Na+].[Na+].[Na+].[Na+].[Na+].[Na+].[Na+] (stereo not shown) [Compound 247] | 1690 | inhibition of control and/or VEGF-A-stimulated angiogenesis | > 100000 | 430 | 45
7 | C#CCCCOC1OC(COS(=O)(=O)O)C(OC2OC(C(=O)O)C(OC3OC(COS(=O)(=O)O)C(OC4OC(C(=O)O)C(OCc5ccccc5)C(OCc5ccccc5)C4OS(=O)(=O)O)C(OCc4ccccc4)C3NS(=O)(=O)O)C(OCc3ccccc3)C2OS(=O)(=O)O)C(OCc2ccccc2)C1NS(=O)(=O)O (stereo not shown) [Compound 236] | 1350 |  | 187 | 3600 | 310
